# Assay results: US12528837B2, “Aryl substituted polymyxin derivatives” (priority 2018, dated 2026)
# Like-named read-outs stand apart in the source and are kept apart here. Where a SMILES comes first, the peptide text is derived from it. Bridges are numbered along the chain shown (N, C = ends). [ ]: non-standard residue; d: D form. The star is where a group is joined. X6 = CC(C)Cc1cccc([C@@H](CN)CC(=O)*)c1; X9 = CC(C)c1cccc([C@H](CN)CC(=O)*)c1; X12 = NC[C@H](CC(=O)*)c1cccc(Br)c1; X13 = Cc1cccc([C@H](CN)CC(=O)*)c1; Dab = NCC[C@H](N)C(=O)O; Abu = CC[C@H](N)C(=O)O; Dap = NC[C@H](N)C(=O)O
# Key:
# A. baumannii NCTC 13424 = format: cell-based
# Method: (§1) The inoculum was prepared by making a direct suspension of isolated colonies (selected from an 18-24 hour Mueller-Hinton agar plate) adjusted to the 0.5 McFarland standard. […] The assays were performed in duplicate. […] The MIC values are quoted in μg/mL.
# E. coli ATCC 25922 = format: cell-based
# Method: as §1
# K. pneumoniae ATCC 13822 = format: cell-based
# Method: as §1
# [1] = test system: A. baumannii ATCC BAA-747; format: cell-based
# Method: as §1
# P. aeruginosa ATCC 27853 = format: cell-based
# Method: as §1
# E. coli CA58 = format: cell-based
# How it was run: (§2)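 MIC (μg/mL), duplicate runs; median value where a compound was tested repeatedly. Inoculum: colonies from 18-24 h Mueller-Hinton agar, suspended directly to 0.5 McFarland.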
# P. aeruginosa CCUG 59347 = format: cell-based
# How it was run: as §2
# K. pneumoniae CA64 = format: cell-based
# How it was run: as §2
# HK-2 cells = assay: In vitro renal cell toxicity assay (HK-2); format: cell-based
# How it was run: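 HK-2 cells seeded 7,500/well, adhered overnight, then exposed to compound for 24 h at 37° C, 5% CO2, with 5% water and 0.5% DMSO. Background-subtracted, vehicle-normalised dose-response fitted with bottom fixed at zero; IC50 reported relative to PMB in the same run, median where repeated.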
# [2] = Kidney drug level after subcutaneous dose in mouse; format: in vivo; conditions: mouse, in vivo, sc, 17.2 mg/kg
# How it was run: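 Mice were euthanised four hours after subcutaneous dosing. Both kidneys were trimmed, weighed, snap-frozen, then homogenised with zirconium oxide beads. After centrifugation (13,000 rpm, 6 °C, 10 min), supernatants were analysed by LC-MS-MS.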
# [3] = cation-adjusted Mueller-Hinton Broth, 18-20 h, 35° C.
SMILES,MIC A. baumannii NCTC 13424 (A. baumannii NCTC 13424; [3]) [µg/mL],MIC E. coli ATCC 25922 (E. coli ATCC 25922; [3]) [µg/mL],MIC K. pneumoniae ATCC 13822 (K. pneumoniae ATCC 13822; [3]) [µg/mL],"MIC A. baumannii ATCC BAA-747 [1, 3] [µg/mL]",MIC P. aeruginosa ATCC 27853 (P. aeruginosa ATCC 27853; [3]) [µg/mL],MIC E. coli CA58 (E. coli CA58; [3]) [µg/mL],MIC P. aeruginosa CCUG 59347 (P. aeruginosa CCUG 59347; [3]) [µg/mL],MIC K. pneumoniae CA64 (K. pneumoniae CA64; [3]) [µg/mL],MIC A. baumannii NCTC 13424 (A. baumannii NCTC 13424; NCTC 13424) [µg/mL],MIC E. coli ATCC 25922 (E. coli ATCC 25922; ATCC 25922) [µg/mL],MIC K. pneumoniae ATCC 13822 (K. pneumoniae ATCC 13822; ATCC 13822) [µg/mL],MIC A. baumannii ATCC BAA-747 ([1]; ATCC BAA-747) [µg/mL],MIC P. aeruginosa ATCC 27853 (P. aeruginosa ATCC 27853; ATCC 27853) [µg/mL],HK-2 rel to PMB (HK-2 cells),MIC E. coli CA58 (E. coli CA58; CA58) [µg/mL],MIC P. aeruginosa CCUG 59347 (P. aeruginosa CCUG 59347; CCUG 59347) [µg/mL],MIC K. pneumoniae CA64 (K. pneumoniae CA64; CA64) [µg/mL],tissue level at time at 4 h [2] [ng/g]
"CC(C)C[C@H]1NC(=O)[C@H](CCN)NC(=O)[C@@H](NC(=O)[C@H](CN)NC(=O)[C@@H](NC(=O)C[C@@H](CN)c2cccc(C(C)C)c2)[C@@H](C)O)CCNC(=O)[C@H]([C@@H](C)O)NC(=O)[C@H](CCN)NC(=O)[C@H](CCN)NC(=O)[C@H]([C@@H](C)O)NC1=O [Example 20, (R)-4-amino-3-(3- isopropylphenyl) butanoyl-Thr-Dap- Cyclo[Dab-Dab-DLeu- Thr-Dab-Dab-Thr]] (X9-T[Dap][Dab][Dab][dL]T[Dab][Dab]T; lactam 3-C)",1,1,2,2,0.5,64,2,64,–,–,–,–,–,–,–,–,–,–
"Cc1cccc([C@H](CN)CC(=O)N[C@H](C(=O)N[C@@H](CN)C(=O)N[C@H]2CCNC(=O)[C@H]([C@@H](C)O)NC(=O)[C@H](CCN)NC(=O)[C@H](CCN)NC(=O)[C@H](CC(C)C)NC(=O)[C@@H](Cc3ccccc3)NC(=O)[C@H](CCN)NC2=O)[C@@H](C)O)c1 [Example 22, (R)-4-amino-3-(m- toly)butanoyl-Thr- Dap-Cyclo[Dab-Dab- DPhe-Leu-Dab-Dab- Thr]] (X13-T[Dap][Dab][Dab][dF]L[Dab][Dab]T; lactam 3-C)",1,0.25,0.25,1,0.25,16,0.5,8,–,–,–,–,–,–,–,–,–,–
"CC[C@@H]1NC(=O)[C@@H](CC(C)C)NC(=O)[C@H](CCN)NC(=O)[C@@H](NC(=O)[C@H](CN)NC(=O)[C@@H](NC(=O)C[C@H](CN)c2cccc(CC(C)C)c2)[C@@H](C)O)CCNC(=O)[C@H]([C@@H](C)O)NC(=O)[C@H](CCN)NC(=O)[C@H](CCN)NC1=O [Example 26, (S)-4-amino-3-(3- isobutylphenyl)butanoyl- Thr-Dap- Cyclo[Dab-Dab-DLeu- Abu-Dab-Dab-Thr]] (X6-T[Dap][Dab][Dab][dL][Abu][Dab][Dab]T; lactam 3-C)",–,–,–,–,–,–,–,–,0.03,0.06,0.5,0.06,0.25,>58,8,0.5,8,353000
"CC[C@@H]1NC(=O)[C@@H](CC(C)C)NC(=O)[C@H](CCN)NC(=O)[C@@H](NC(=O)[C@H](CN)NC(=O)[C@@H](NC(=O)C[C@@H](CN)c2cccc(Br)c2)[C@@H](C)O)CCNC(=O)[C@H]([C@@H](C)O)NC(=O)[C@H](CCN)NC(=O)[C@H](CCN)NC1=O [Example 33, (R)-4-amino-3-(3- bromophenyl)butanoyl- Thr-Dap-Cyclo[Dab- Dab-DLeu-Abu-Dab- Dab-Thr],] (X12-T[Dap][Dab][Dab][dL][Abu][Dab][Dab]T; lactam 3-C)",1,0.5,0.5,1,0.5,64,0.5,16,–,–,–,–,–,–,–,–,–,–
